Where a name gives a salt, the structure may show the parent alone.
SMILES | melting point
ON=Cc1ccc(Cl)c(Cl)c1OCc1ccccc1 (as salt: HCl) [Compound 1e, O-Benzyl 2-formyl-5,6-dichlorophenol oxime] | 64 to 69 °C
COc1c(C=NO)ccc(Cl)c1Cl (as salt: HCl) [Compound 1f, O-Methyl 2-formyl-5,6-dichlorophenol oxime] | 82 to 83 °C
CC(=O)c1ccccc1NC(C)=NO [Compound 1i, N-(2-acetylphenyl)acetamide oxime] | 99 to 100 °C
